pIC50: −log10 of the molar value.
These compounds were tested against T1, Gag-Pol polyprotein [588-1027]/[588-1147] (Human immunodeficiency virus 1, UniProt P04585) (assay: HIV-1 RT Assay). Conditions: pH 7.9.
T1 construct: 588-1027; 588-1147
Description: The IC50 of reverse transcriptase is the concentration that inhibits 50% of recombinant HIV-1 RT RNA-directed DNA polymerase activity in vitro.
`CCOC(=O)N1CCC(=C(c2cc(Cl)c(O)c(C(=O)O)c2)c2cc(Cl)c(O)c(C(=O)O)c2)CC1` [5-[(3-carboxy-5-chloro-4-hydroxyphenyl)[1-(ethoxycarbonyl)piperidin-4-ylidene]methyl]-3-chloro-2-hydroxybenzoic acid] showed a pIC50 of under 4.00.
`CCOC(=O)N1CCC(C(c2cc(C)c(OC)c(C(=O)OC)c2)c2cc(C)c(OC)c(C(=O)OC)c2)CC1` [Ethyl 4 - (4,4 - dimethoxy - 3,3 - di(methoxycarbonyl)-5,5-dimethyl-diphenylmethyl)piperidinecarboxylate] gave a pIC50 of under 4.00.
For `CCOC(=O)N1CCC(=C(c2cc(Cl)c(OC)c(C(=O)O)c2)c2cc(Cl)c(OC)c(C(=O)O)c2)CC1` [Ethyl 4-(3,3-dicarboxy-5,5-dichloro-4,4-dimethoxydiphenylmethylene)piperidinecarboxylate], the pIC50 was under 4.00.
`CCOC(=O)N1CCC(=C(c2cc(Cl)c(OC)c(C(=O)OC)c2)c2cc(Cl)c(OC)c(C(=O)OC)c2)CC1` [Ethyl 4-(3,3-dichloro-4,4-dimethoxy-5,5-di(methoxycarbonyl)-diphenylmethylene)piperidinecarboxylate] gave a pIC50 of under 4.00.
Work on `COC(=O)c1cc(C(c2cc(C)c(OC)c(C(=O)OC)c2)C2CCN(C(=O)OC)CC2)cc(C)c1OC` [Methyl 4 - (4,4 - dimethoxy - 3,3 - di(methoxycarbonyl)-5,5-dimethyl-diphenylmethyl)piperidinecarboxylate] yielded a pIC50 of under 4.00.
Compound `COC(=O)N1CCC(=C(c2cc(Cl)c(OC)c(C(=O)O)c2)c2cc(Cl)c(OC)c(C(=O)O)c2)CC1` [Methyl 4-(3,3-dicarboxy-5,5-dichloro-4,4-dimethoxydiphenylmethylene)piperidinecarboxylate] has a pIC50 of under 4.00.
For `COC(=O)c1cc(C(=C2CCN(C(=O)OC)CC2)c2cc(C)c(OC)c(C(=O)OC)c2)cc(C)c1OC` [Methyl 4-(4,4-dimethoxy-3,3 - di(methoxycarbonyl) -5,5 - dimethyl - diphenylmethylene)piperidinecarboxylate], the pIC50 was under 4.00.
Work on `COC(=O)CCCC(=O)N1CCC(=C(c2cc(Cl)c(OC)c(C(=O)OC)c2)c2cc(Cl)c(OC)c(C(=O)OC)c2)CC1` [Methyl 5-[4-{3,3-dichloro-4,4-dimethoxy-5,5-di(methoxycarbonyl)diphenylmethylene}piperidyl]-5-oxopentanoate] yielded a pIC50 of under 4.00.
`COC(=O)CCCC(=O)N1CCC(=C(c2cc(C)c(OC)c(C(=O)OC)c2)c2cc(C)c(OC)c(C(=O)OC)c2)CC1` [Methyl 5-[4-{4,4-dimethoxy-4,4-bis(methoxycarbonyl)-5,5-(dimethyl)diphenylmethylene}piperidyl]-5-oxopentanoate] was tested, and the pIC50 was under 4.00.
`CCOC(=O)N1CCC(=C(c2cc(Cl)c3c(c2)C(=O)OC(C)(C)O3)c2cc(Cl)c3c(c2)C(=O)OC(C)(C)O3)CC1` [ethyl 4-[bis(8-chloro-2,2-dimethyl-4-oxo-2,4-dihydro-1,3-benzodioxin-6-yl)methylidene]piperidine-1-carboxylate] was tested, and the pIC50 was under 4.00.
`CCOC(=O)N1CCC(=C(c2cc(C)c(OC)c(C(=O)OC)c2)c2cc(C)c(OC)c(C(=O)OC)c2)CC1` [ethyl 4-{bis[4-methoxy-3-(methoxycarbonyl)-5-methylphenyl]methylidene}piperidine-1-carboxylate] was tested, and the pIC50 was under 4.00.
With `COC(=O)c1cc(C(=C2CCN(C(=O)OC)CC2)c2cc(Cl)c(OC)c(C(=O)OC)c2)cc(Cl)c1OC` [methyl 4-{bis[3-chloro-4-methoxy-5-(methoxycarbonyl)phenyl]methylidene}piperidine-1-carboxylate] the pIC50 was under 4.00.
Compound `COC(=O)N1CCC(=C2c3ccccc3C=Cc3ccccc32)CC1` [methyl 4-{tricyclo[9.4.0.0^{3,8}]pentadeca-1(11),3,5,7,9,12,14-heptaen-2-ylidene}piperidine-1-carboxylate] has a pIC50 of under 4.00.
Work on `COC(=O)N1CCC(=C2c3ccccc3CCc3ccccc32)CC1` [methyl 4-{tricyclo[9.4.0.0^{3,8}]pentadeca-1(11),3,5,7,12,14-hexaen-2-ylidene}piperidine-1-carboxylate] yielded a pIC50 of under 4.00.
